Data published in US4195018A, “3-[(S)-1'-Phenylethylamino]propylaminobleomycin, non-toxic salt thereof, and method for producing same” (Nippon Kayaku Kabushiki Kaisha, priority 1977, dated 1980).
In brackets after ≈: the same amount, converted by molar mass. Several values for one entry are separate records, joined by “and”; a condition that tells them apart may be missing. Equal values may be shown once. Entries after “also recorded” stand apart in the source; their conditions may differ.

Columns and labels:
[1] = system: Mycobacterium smegmatis ATCC 607 (Mycobacterium 607); test: Antimicrobial potency by the cup method, bleomycin A2 as standard; format: cell-based; settings: for Antimicrobial potency: product batches of the Examples, bleomycin A2 (copper-free form) = 1,000 u/mg; for Antimicrobial potency M. 607: bleomycin A2 standard = 1,000 U/mg
Method: (§1) The antimicrobial potency was assayed by the cup method against Mycobacterium 607 and Bacillus subtilis PCI by using bleomycin A2 as standard (1,000 U/mg).
[Note: The antimicrobial potency was assayed using Mycobacterium smegmatis ATCC 607 as assay organism and assuming the potency of bleomycin A2 (copper-free form) as 1,000 u/mg. The same applies hereinafter.]

[2] = Solubility (physicochemical properties); settings: solvents as named in the value
HeLa S3 cell = test: Action on cultivated HeLa S3 cell (growth inhibition); format: cell-based; settings: for ID50: percentage growth inhibition in 72 hours of culture
AH66 ascites hepatoma = test: Carcinostatic activity against ascites hepatoma (ascites type) in rats; format: in vivo, Donryu strain rats; settings: control = 100
Method: Each 1×10^6 AH66 cells were transplanted intraperitoneally into Donryu strain rats. After 24 hours, the test preparation was intraperitoneally administered once a day for 10 consecutive days. During a period of 30 days after the transplantation, the weight of each rat and the number of dead and survival were observed.

Bacillus subtilis PCI = test: Antimicrobial potency by the cup method, bleomycin A2 as standard; format: cell-based; settings: bleomycin A2 standard = 1,000 U/mg
Method: as §1

[3] = system: mouse squamous cell carcinoma induced by 20-methylcholanthrene; test: Inhibitory activity against mouse squamous cell carcinoma induced by 20-methylcholanthrene; format: in vivo, ddy strain mice; settings: for Mortality: 62.5 mcg/mouse i.p. twice a week for 15 weeks; for Percentage inhibition: inhibition of carcinogenesis vs control, 62.5 mcg/mouse i.p.
Text: An acetone solution of 20-MC was topically applied to the sheared back of ddy strain mice (male, 10 weeks old), twice a week, for 18 weeks. After 5 weeks from the beginning of the 20-MC treatment, 62.5 mcg/mouse of the test preparation was intraperitoneally applied, twice a week, during a period of 15 weeks. Within the first week after completion of the administration of test preparation, the region where 20-MC had been applied was pathologically examined for the incidence of carcinogenesis.

lung of mice = test: Toxicity to the lung of mice (pulmonary fibrosis); format: in vivo, ICR strain mice; settings: for Grade: Relative value / Incidence: Relative value: Bleomycin complex = 1.0, 5 mg/kg i.p. x 10 days
Method: ICR strain mice (male, 15 weeks old), 12 in number per group, were used. […]. The dose was administered by intraperitoneal injection, once a day, for 10 consecutive days. After administration, the mice were bred for 5 weeks. After observation, the mice were slaughtered and autopsied to determine the extent of pulmonary fibrosis. […].

rats [4] = test: Acute toxicity in intraperitoneal route (LD50) in rats; settings: rat
[5] = system: mouse Ehrlich cancer (solid tumor); test: Carcinostatic activity to mouse Ehrlich cancer (solid tumor); format: in vivo, ICR strain mice; settings: for Percentage inhibition: tumor weight on 15th day vs control; for ID50: Ehrlich solid tumor, 10 doses
Method: Each 2×10^6 cells were transplanted subcutaneously into the inguinal region of ICR strain mice (male, 6 weeks old). After 24 hours, each mouse was administered with test preparations in the same manner as described in 1-2 above. On the 15th day after the subcutaneous transplantation, tumors were removed from each mouse and compared the weight with that of tumors developed in the control group, which had received no treatment, to determine the percentage inhibition.

rats [6] = system: rats
[7] = 3.12 mg/kg x 10 i.p., 30 days observation

Row | SMILES | Antimicrobial potency [1] | Solubility [2] | ID50 (HeLa S3 cell) | Relative value of average survival days (AH66 ascites hepatoma; 0.19 mg/kg x 10 i.p.) | Relative value of average survival days (AH66 ascites hepatoma; 0.39 mg/kg x 10 i.p.) | Relative value of average survival days (AH66 ascites hepatoma; 0.78 mg/kg x 10 i.p.) | Relative value of average survival days (AH66 ascites hepatoma; 1.56 mg/kg x 10 i.p.) | Relative value of average survival days (AH66 ascites hepatoma; [7]) | Antimicrobial potency B. Sub. (Bacillus subtilis PCI) | Mortality [3] | Percentage inhibition [3] | Antimicrobial potency M. 607 [1] | Grade: Relative value (lung of mice) | Incidence: Relative value (lung of mice) | LD50 (rats [4]) | Percentage inhibition ([5]; 0.03 mg/kg x 10) | Percentage inhibition ([5]; 0.1 mg/kg x 10) | Percentage inhibition ([5]; 0.3 mg/kg x 10) | Percentage inhibition ([5]; 0.9 mg/kg x 10) | Percentage inhibition ([5]; 2.7 mg/kg x 10) | also measured
1 | CC(=O)O.CC(=O)O.Cc1c(N)nc([C@H](CC(N)=O)NC[C@H](N)C(N)=O)nc1C(=O)N[C@H](C(=O)N[C@H](C)[C@@H](O)[C@H](C)C(=O)N[C@H](C(=O)NCCc1nc(-c2nc(C(=O)NCCCN[C@@H](C)c3ccccc3)cs2)cs1)[C@@H](C)O)[C@@H](O[C@@H]1O[C@@H](CO)[C@@H](O)[C@H](O)[C@@H]1O[C@H]1O[C@H](CO)[C@@H](O)[C@H](OC(N)=O)[C@@H]1O)c1cnc[nH]1 | 7,620 u/mg | Soluble in water, methanol, acetic acid, DMSO, DMF; also recorded: sparingly soluble in dioxane; also recorded: insoluble in ethanol |  |  |  |  |  |  |  |  |  |  |  |  |  |  |  |  |  |  | 
2 | Cc1c(N)nc(C(CC(N)=O)NCC(N)C(N)=O)nc1C(=O)NC(C(=O)NC(C)C(O)C(C)C(=O)NC(C(=O)NCCc1nc(-c2nc(C(=O)NCCCNC(C)c3ccccc3)cs2)cs1)C(C)O)C(OC1OC(CO)C(O)C(O)C1OC1OC(CO)C(O)C(OC(N)=O)C1O)c1cnc[nH]1.O=S(=O)(O)O (mixture of isomers) [RS form, 3-[(R,S)-1'-phenylethylamino]propylaminobleomycin monosulfate (copper-free form), reference compound] |  |  | 0.80 µg/mL | 121 | 149 | 196 | 257 | 298 | 1400 U/mg | 1/12 | 47.8 | 7535 U/mg | 0.49 | 0.63 | 150.6 mg(w)/kg | 13 | 51 | 51 | 60 | 78 | ID50 [5]: 0.31 mg/kg/day
3 | Cc1c(N)nc([C@H](CC(N)=O)NC[C@H](N)C(N)=O)nc1C(=O)N[C@H](C(=O)N[C@H](C)[C@@H](O)[C@H](C)C(=O)N[C@H](C(=O)NCCc1nc(-c2nc(C(=O)NCCCN[C@@H](C)c3ccccc3)cs2)cs1)[C@@H](C)O)[C@@H](O[C@@H]1O[C@@H](CO)[C@@H](O)[C@H](O)[C@@H]1O[C@H]1O[C@H](CO)[C@@H](O)[C@H](OC(N)=O)[C@@H]1O)c1cnc[nH]1.Cl.Cl.[Cu] [3-[(S)-1'-phenylethylamino]propylaminobleomycin dihydrochloride (copper-containing form)] |  | Soluble in water, methanol |  |  |  |  |  |  |  |  |  |  |  |  |  |  |  |  |  |  | 
4 | Cc1c(N)nc([C@H](CC(N)=O)NC[C@H](N)C(N)=O)nc1C(=O)N[C@H](C(=O)N[C@H](C)[C@@H](O)[C@H](C)C(=O)N[C@H](C(=O)NCCc1nc(-c2nc(C(=O)NCCCN[C@@H](C)c3ccccc3)cs2)cs1)[C@@H](C)O)[C@@H](O[C@@H]1O[C@@H](CO)[C@@H](O)[C@H](O)[C@@H]1O[C@H]1O[C@H](CO)[C@@H](O)[C@H](OC(N)=O)[C@@H]1O)c1cnc[nH]1.Cl.Cl [NK631 dihydrochloride (copper-free form)] | 7,834 u/mg and 7,820 u/mg and 7,845 u/mg | Soluble in water, methanol, acetic acid, DMSO, DMF; also recorded: sparingly soluble in dioxane; also recorded: insoluble in ethanol |  |  |  |  |  |  |  |  |  |  |  |  |  |  |  |  |  |  | 
5 | Cc1c(N)nc([C@H](CC(N)=O)NC[C@H](N)C(N)=O)nc1C(=O)N[C@H](C(=O)N[C@H](C)[C@@H](O)[C@H](C)C(=O)N[C@H](C(=O)NCCc1nc(-c2nc(C(=O)NCCCN[C@@H](C)c3ccccc3)cs2)cs1)[C@@H](C)O)[C@@H](O[C@@H]1O[C@@H](CO)[C@@H](O)[C@H](O)[C@@H]1O[C@H]1O[C@H](CO)[C@@H](O)[C@H](OC(N)=O)[C@@H]1O)c1cnc[nH]1.O=S(=O)(O)O [NK631 monosulfate (copper-free form), 3-[(S)-1'-phenylethylamino]-propylaminobleomycin monosulfate (copper-free form)] | 7,865 u/mg | Soluble in water, methanol, acetic acid, DMSO, DMF; also recorded: sparingly soluble in dioxane; also recorded: insoluble in ethanol |  | 116 | 163 | 216 | 269 | 296 | 1550 U/mg | 1/12 | 47.8 | 7848 U/mg | 0.25 | 0.36 | 155.0 mg(w)/kg | 19 | 24 | 39 | 68 | 84 | Subacute and chronic toxicity (rats [6]): comparable to Bleomycin complex; Subacute and chronic toxicity (dogs; dogs): comparable to Bleomycin complex; Toxicity to the lung (dogs; subacute and chronic toxicity study, species not stated separately): lower than that of the Bleomycin complex; Fibrosis grade reduced to, as compared with RS form (lung of mice; relative to RS form): about 1/2; Fibrosis incidence reduced to, as compared with RS form (lung of mice; relative to RS form): about 1/2; Fibrosis grade reduced to, as compared with bleomycin complex (lung of mice; relative to bleomycin complex): 1/4; Fibrosis incidence reduced to, as compared with bleomycin complex (lung of mice; relative to bleomycin complex): 1/3; ID50 [5]: 0.35 mg/kg/day; Carcinostatic activity, times as high as that of the Bleomycin complex ([5]; relative to bleomycin complex): about 1.4 times
6 | Cc1c(N)nc(C(CC(N)=O)NCC(N)C(N)=O)nc1C(=O)NC(C(=O)NC(C)C(O)C(C)C(=O)NC(C(=O)NCCc1nc(-c2nc(C(=O)NCCCNC(C)c3ccccc3)cs2)cs1)C(C)O)C(OC1OC(CO)C(O)C(O)C1OC1OC(CO)C(O)C(OC(N)=O)C1O)c1c[nH]cn1 [NK631, 3-[(S)-1'-phenylethylamino]propylaminobleomycin] |  |  | 0.82 µg/mL (≈ 0.556 µM) |  |  |  |  |  |  |  |  |  |  |  |  |  |  |  |  |  | Cell growth inhibition compared with Bleomycin complex (HeLa S3 cell; HeLa S3, 72 hours): twice as strongly as Bleomycin complex
